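Interpolation was linear, between the two tested concentrations surrounding the appropriate level; five concentrations were tested over 48 hours in 96-well plates. TGI: total growth inhibition.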
Key:
Experiment in all cases: NCI tumour cell line growth inhibition, 48 h
[1] = test system: 786-0 renal
[2] = test system: A498 renal
[3] = test system: A549 NSCLC
[4] = test system: ACHN renal
[5] = test system: BT-549 breast
[6] = test system: CAKI-1 renal
[7] = test system: COLO 205 colon
[8] = test system: DU-145 prostate
[9] = test system: EKVX NSCLC
[10] = test system: HCC-2998 colon
[11] = test system: HCT-116 colon
[12] = test system: HCT-15 colon
[13] = test system: HOP-62 NSCLC
[14] = test system: HOP-92 NSCLC
[15] = test system: HT29 colon
[16] = test system: IGROV1 ovarian
[17] = test system: K-562 leukemia
[18] = test system: KM12 colon
[19] = test system: M14 melanoma
[20] = test system: MCF7 breast
[21] = test system: MDA-MB-231 breast
[22] = test system: MDA-MB-435
[23] = test system: MDA-N
[24] = test system: MOLT-4 leukemia
[25] = test system: NCI-H226 lung
[26] = test system: NCI-H23 lung
[27] = test system: NCI-H460 lung
[28] = test system: NCI/ADR-RES ovarian
[29] = test system: OVCAR-3 ovarian
[30] = test system: OVCAR-4 ovarian
[31] = test system: OVCAR-5 ovarian
[32] = test system: OVCAR-8 ovarian
[33] = test system: PC-3 prostate
[34] = test system: RPMI-8226 leukemia
[35] = test system: RXF 393 renal
[36] = test system: SF-268 CNS
[37] = test system: SF-295 CNS
[38] = test system: SF-539 CNS
[39] = test system: SK-MEL-2 melanoma
[40] = test system: SK-MEL-28 melanoma
[41] = test system: SK-MEL-5 melanoma
[42] = test system: SK-OV-3 ovarian
[43] = test system: SN12C renal
[44] = test system: SNB-19 CNS
[45] = test system: SNB-75 CNS
[46] = test system: SR leukemia
[47] = test system: SW-620 colon
[48] = test system: T-47D breast
[49] = test system: TK-10 renal
[50] = test system: U251 CNS
[51] = test system: UACC-257 melanoma
[52] = test system: UACC-62 melanoma
[53] = test system: UO-31 renal
[54] = test system: CCRF-CEM leukemia
[55] = test system: HL-60(TB) leukemia
[56] = test system: LOX IMVI melanoma
[57] = test system: MALME-3M melanoma
[58] = test system: NCI-H522 lung

Structure (SMILES): COc1ccc(/C=C2/SC(c3ccc(Cl)cc3)N(NC(=O)CCCCCCCCC(=O)NN3C(=O)/C(=C\c4ccc(OC)c(OC)c4)SC3c3ccc(Cl)cc3)C2=O)cc1OC (stereo not drawn)
- TGI [1]: 76.8 µM
- TGI [2]: 82.1 µM
- TGI [3]: > 100 µM
- TGI [4]: > 100 µM
- TGI [5]: > 100 µM
- TGI [6]: > 100 µM
- TGI [7]: > 100 µM
- TGI [8]: > 100 µM
- TGI [9]: 78.7 µM
- TGI [10]: > 100 µM
- TGI [11]: > 100 µM
- TGI [12]: > 100 µM
- TGI [13]: 57.9 µM
- TGI [14]: 48.8 µM
- TGI [15]: > 100 µM
- TGI [16]: 59.8 µM
- TGI [17]: > 100 µM
- TGI [18]: > 100 µM
- TGI [19]: > 100 µM
- TGI [20]: > 100 µM
- TGI [21]: > 100 µM
- TGI [22]: > 100 µM
- TGI [23]: 98.4 µM
- TGI [24]: > 100 µM
- TGI [25]: > 100 µM
- TGI [26]: 47.1 µM
- TGI [27]: > 100 µM
- TGI [28]: > 100 µM
- TGI [29]: > 100 µM
- TGI [30]: > 100 µM
- TGI [31]: > 100 µM
- TGI [32]: > 100 µM
- TGI [33]: > 100 µM
- TGI [34]: > 100 µM
- TGI [35]: 70.7 µM
- TGI [36]: > 100 µM
- TGI [37]: 59.9 µM
- TGI [38]: 85.5 µM
- TGI [39]: > 100 µM
- TGI [40]: > 100 µM
- TGI [41]: > 100 µM
- TGI [42]: > 100 µM
- TGI [43]: > 100 µM
- TGI [44]: > 100 µM
- TGI [45]: > 100 µM
- TGI [46]: > 100 µM
- TGI [47]: > 100 µM
- TGI [48]: > 100 µM
- TGI [49]: > 100 µM
- TGI [50]: > 100 µM
- TGI [51]: > 100 µM
- TGI [52]: 89.3 µM
- TGI [53]: > 100 µM

Structure (SMILES): CC1(C)Cc2c(cnn2-c2ccc(C(F)(F)F)cc2)-c2nc(-c3ccc(O)cc3)[nH]c21
- TGI [1]: 12.6 µM
- TGI [2]: 43.7 µM
- TGI [3]: 38.6 µM
- TGI [4]: 28.5 µM
- TGI [5]: 28.5 µM
- TGI [6]: 34.6 µM
- TGI [54]: 11.2 µM
- TGI [7]: 35.6 µM
- TGI [8]: 31.6 µM
- TGI [9]: 42.9 µM
- TGI [10]: 30 µM
- TGI [11]: 28.4 µM
- TGI [12]: 25.8 µM
- TGI [55]: 23 µM
- TGI [13]: 39.6 µM
- TGI [14]: 45.1 µM
- TGI [15]: 17.4 µM
- TGI [16]: 40.1 µM
- TGI [17]: 70.2 µM
- TGI [18]: 33.9 µM
- TGI [56]: 43 µM
- TGI [19]: 33.9 µM
- TGI [57]: 29.7 µM
- TGI [20]: 30.7 µM
- TGI [21]: 40.7 µM
- TGI [22]: 37.8 µM
- TGI [23]: 38.6 µM
- TGI [24]: 22.7 µM
- TGI [25]: 52.3 µM
- TGI [26]: 41.2 µM
- TGI [27]: 33.2 µM
- TGI [58]: 26.2 µM
- TGI [28]: 45 µM
- TGI [29]: 29.4 µM
- TGI [30]: 29.2 µM
- TGI [31]: 39.1 µM
- TGI [32]: 58.2 µM
- TGI [33]: 33.3 µM
- TGI [35]: 15.6 µM
- TGI [36]: 28.5 µM
- TGI [37]: 38 µM
- TGI [40]: 30.9 µM
- TGI [41]: 34 µM
- TGI [42]: 45.3 µM
- TGI [43]: 31.8 µM
- TGI [44]: 86.1 µM
- TGI [45]: 21 µM
- TGI [46]: 28.7 µM
- TGI [47]: 51.5 µM
- TGI [48]: 38.5 µM
- TGI [49]: 35.3 µM
- TGI [50]: 25.2 µM
- TGI [51]: 34.4 µM
- TGI [52]: 31 µM
- TGI [53]: 36.2 µM

Structure (SMILES): O=C1/C(=C/c2ccco2)N=C(c2ccccc2)N1c1ccc(S(=O)(=O)Nc2nccs2)cc1
- TGI [1]: > 100 µM
- TGI [3]: > 100 µM
- TGI [4]: > 100 µM
- TGI [5]: > 100 µM
- TGI [6]: > 100 µM
- TGI [54]: > 100 µM
- TGI [7]: > 100 µM
- TGI [8]: > 100 µM
- TGI [9]: > 100 µM
- TGI [10]: > 100 µM
- TGI [11]: > 100 µM
- TGI [12]: 94.5 µM
- TGI [55]: > 100 µM
- TGI [13]: > 100 µM
- TGI [14]: > 100 µM
- TGI [15]: > 100 µM
- TGI [16]: > 100 µM
- TGI [17]: > 100 µM
- TGI [18]: > 100 µM
- TGI [56]: > 100 µM
- TGI [19]: > 100 µM
- TGI [57]: > 100 µM
- TGI [20]: > 100 µM
- TGI [21]: > 100 µM
- TGI [22]: > 100 µM
- TGI [23]: > 100 µM
- TGI [24]: > 100 µM
- TGI [25]: > 100 µM
- TGI [26]: > 100 µM
- TGI [27]: > 100 µM
- TGI [58]: > 100 µM
- TGI [28]: > 100 µM
- TGI [29]: > 100 µM
- TGI [30]: > 100 µM
- TGI [31]: > 100 µM
- TGI [32]: > 100 µM
- TGI [33]: > 100 µM
- TGI [34]: > 100 µM
- TGI [35]: > 100 µM
- TGI [36]: > 100 µM
- TGI [37]: > 100 µM
- TGI [38]: > 100 µM
- TGI [39]: > 100 µM
- TGI [41]: > 100 µM
- TGI [42]: > 100 µM
- TGI [43]: > 100 µM
- TGI [45]: > 100 µM
- TGI [46]: > 100 µM
- TGI [47]: > 100 µM
- TGI [48]: > 100 µM
- TGI [49]: > 100 µM
- TGI [50]: > 100 µM
- TGI [51]: 89.5 µM
- TGI [52]: > 100 µM
- TGI [53]: > 100 µM

From PubChem BioAssay (NCI)
